Measurements reported in ChEMBL document CHEMBL5033988, “Quinolizidine Alkaloids from Cylicomorpha solmsii” (2021).

Key:
Type in all cases: functional
Conditions in all cases: HCT-116, 72 h, time 3 day
[1] = tested on: HCT-116; assay: Antiproliferative activity against human HCT-116 cells assessed as cell growth inhibition at 1 uM after 3 days by ATPlite assay relative to control
[2] = tested on: HCT-116; assay: Antiproliferative activity against human HCT-116 cells assessed as cell growth inhibition at 0.4 uM after 3 days by ATPlite assay relative to control
[3] = tested on: HCT-116; assay: Antiproliferative activity against human HCT-116 cells assessed as cell growth inhibition at 20 uM after 3 days by ATPlite assay relative to control
[4] = tested on: HCT-116; assay: Antiproliferative activity against human HCT-116 cells assessed as cell growth inhibition at 10 uM after 3 days by ATPlite assay relative to control

Row | SMILES | inhibition at 1 µM [1] | inhibition at 0.4 µM [2] | inhibition at 20 µM [3] | inhibition at 10 µM [4]
1 | COc1ccc(/C=C/C(=O)O[C@@H]2CC[C@@H]3CCC[C@H](CC(=O)O)N3[C@H]2C)cc1 | 0.9% | -6.1% | 80.2% | 62.3%
2 | C[C@H]1[C@H](OC(=O)/C=C/c2ccccc2)CC[C@@H]2CCC[C@H](CC(=O)O)N21 | -7.8% | -3.6% | 0.7% | -4.2%
3 | C[C@H]1[C@H](OC(=O)c2ccccc2)CC[C@@H]2CCC[C@H](CC(=O)O)N21 | -4.3% | -12.8% | -6.2% | -10.2%
4 | COc1ccc(C(=O)O[C@@H]2CC[C@@H]3CCC[C@H](CC(=O)O)N3[C@H]2C)c(OC)c1 | -8% | -6.1% | -3.2% | -4.7%
5 | COc1ccc(C(=O)O[C@@H]2CC[C@@H]3CCC[C@H](CC(=O)O)N3[C@H]2C)cc1OC | -5.5% | -3.6% | -13.1% | -6.4%
6 | COc1cccc2c1C(=O)c1c(O)c3c(c(O)c1C2=O)C[C@@](O)(C(=O)CO)C[C@@H]3O[C@H]1C[C@H](N)[C@H](O)[C@H](C)O1 [DOXORUBICIN] | 96.3% | 84.5% | 91.7% | 91.1%
